Values of other authors as cited in patent US20140134224A1, “STABLE COMPOSITION OF HOCI, A PROCESS FOR ITS PRODUCTION AND USES THEREOF” (priority 2011, published 2014).
Like-named read-outs stand apart in the source and are kept apart here.

Key:
[1] = Kapoor 1968
[2] = tested on: B. metiens spores; conditions: 25 ppm available chlorine
[3] = unstabilised HOCl solutions of the prior art

Row | Structure (SMILES) | times less effective than hypochlorous acid as a disinfectant [1] | time taken to produce a 99% kill of spores ([2]; pH 6) | time taken to produce a 99% kill of spores ([2]; pH 7) | time taken to produce a 99% kill of spores ([2]; pH 8) | time taken to produce a 99% kill of spores ([2]; pH 9) | time taken to produce a 99% kill of spores ([2]; pH 9.35) | time taken to produce a 99% kill of spores ([2]; pH 10) | time taken to produce a 99% kill of spores ([2]; pH 12.86) | half-life [3]
1 | OCl [hypochlorite ion, hypochlorite] | up to 120 times | – | – | – | – | – | – | – | –
2 | OCl [HOCl, Hypochlorous (or hydrochlorous) acid] | – | 2.5 min | 3.6 min | 5 min | 19.5 min | 35.5 min | 131 min | 465 min | around 48 hours
